Results: patent publication US20260000676A1, “CHROMAN DERIVATIVES AS ESTROGEN RECEPTOR DEGRADERS” (THE REGENTS OF THE UNIVERSITY OF MICHIGAN, priority 2022, published 2026)

Tests used:
CRBN/DDB1 = CRBN/DDB1 (Homo sapiens (Human), UniProt Q96SW2); test: HTRF binding assay to CRBN/DDB1; settings: read-out: CRBN HTRF IC50
Procedure: The binding potency was determined using HTRF assay technology (Perkin Elmer). Compounds were serially diluted in DMSO and 0.2 μL volume was transferred to white 384-well plate.

ER [1] = target: T1, ER (Homo sapiens (Human), UniProt P03372); test: In-cell western (ICW) ER degradation assay in T47D cells; format: cell-based; settings: 16 hrs; for DC50: ER degradation; for Dmax: maximal ER degradation
T1 sequence (P03372 whole entry): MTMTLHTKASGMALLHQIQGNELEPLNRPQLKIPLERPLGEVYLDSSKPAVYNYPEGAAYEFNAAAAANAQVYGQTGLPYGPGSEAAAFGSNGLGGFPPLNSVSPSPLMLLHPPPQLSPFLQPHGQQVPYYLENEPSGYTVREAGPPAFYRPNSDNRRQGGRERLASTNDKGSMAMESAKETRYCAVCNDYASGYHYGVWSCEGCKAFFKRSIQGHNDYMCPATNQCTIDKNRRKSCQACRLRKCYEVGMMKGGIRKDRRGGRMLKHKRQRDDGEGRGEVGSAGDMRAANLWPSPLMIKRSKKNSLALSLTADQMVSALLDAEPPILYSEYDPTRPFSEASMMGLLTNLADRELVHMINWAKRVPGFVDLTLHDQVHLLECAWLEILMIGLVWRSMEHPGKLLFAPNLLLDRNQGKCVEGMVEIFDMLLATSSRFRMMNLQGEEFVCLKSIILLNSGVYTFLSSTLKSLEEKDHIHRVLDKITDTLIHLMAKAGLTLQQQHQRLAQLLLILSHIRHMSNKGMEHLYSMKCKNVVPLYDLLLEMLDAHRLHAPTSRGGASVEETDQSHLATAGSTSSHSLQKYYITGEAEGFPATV
Procedure: ERa degradative activity of compounds can be assessed in MCF-7 and T47D Cells. MCF-7 and T47D cell are seeded and are subsequently treated with the compounds at certain concentrations (e.g., 0.02 to 300 nM). DMSO can be used as vehicle control. Cells are fixed and are blocked with Intercept (PBS) Blocking Buffer (e.g., Li-COR, Odyssey Blocking Buffer), and are stained with ER (e.g., 1:500, Cell signaling) primary antibody for overnight at cold room. Secondary Antibody (e.g., IRDye 800CW Goat anti-Rabbit IgG) and CellTag 700 Stain are added in Intercept (PBS) Blocking Buffer. Finally, cell plate is placed in incubator to dry. Image and signal are captured on Odyssey® DLx Imaging System.
Day 3: After 16 hrs of compounds treatment, cells were fixed by 4% PFA and permeabilized with elution buffer (0.1% Triton X-100 in 1% PBS Solution). Subsequently, cells were blocked with Intercept (PBS) Blocking Buffer (Li-COR, Odyssey Blocking Buffer), and were stained with ER (1:500, Cell signaling) primary antibody for overnight at cold room.
Day 4: Remove the buffer, add IRDye 800CW Goat anti-Rabbit IgG Secondary Antibody (1:2000) and CellTag 700 Stain (1:500) in Intercept (PBS) Blocking Buffer. Finally, cell plate is placed in incubator to dry. Image and signal were captured on Odyssey® DLx Imaging System.

ER [2] = target: T1, ER; test: In-cell western (ICW) ER degradation assay in MCF-7 cells; format: cell-based; settings: MCF7, 16 hrs; for DC50: ER degradation; for Dmax: MCF7, maximal ER degradation

Chain of CRBN/DDB1 (Q96SW2 whole entry): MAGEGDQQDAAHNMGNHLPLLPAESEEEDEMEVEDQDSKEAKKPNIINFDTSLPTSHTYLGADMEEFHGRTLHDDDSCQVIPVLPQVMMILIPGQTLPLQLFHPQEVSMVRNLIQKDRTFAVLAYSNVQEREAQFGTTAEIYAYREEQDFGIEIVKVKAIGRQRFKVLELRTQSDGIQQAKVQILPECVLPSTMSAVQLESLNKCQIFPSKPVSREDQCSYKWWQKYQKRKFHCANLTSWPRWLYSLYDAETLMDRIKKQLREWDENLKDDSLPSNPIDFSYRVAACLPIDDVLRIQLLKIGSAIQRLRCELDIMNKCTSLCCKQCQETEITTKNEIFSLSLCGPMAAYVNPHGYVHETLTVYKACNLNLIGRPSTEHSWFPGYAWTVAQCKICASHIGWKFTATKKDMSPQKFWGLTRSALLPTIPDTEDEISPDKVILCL
Chain of CRBN/DDB1 (Q16531 whole entry partner): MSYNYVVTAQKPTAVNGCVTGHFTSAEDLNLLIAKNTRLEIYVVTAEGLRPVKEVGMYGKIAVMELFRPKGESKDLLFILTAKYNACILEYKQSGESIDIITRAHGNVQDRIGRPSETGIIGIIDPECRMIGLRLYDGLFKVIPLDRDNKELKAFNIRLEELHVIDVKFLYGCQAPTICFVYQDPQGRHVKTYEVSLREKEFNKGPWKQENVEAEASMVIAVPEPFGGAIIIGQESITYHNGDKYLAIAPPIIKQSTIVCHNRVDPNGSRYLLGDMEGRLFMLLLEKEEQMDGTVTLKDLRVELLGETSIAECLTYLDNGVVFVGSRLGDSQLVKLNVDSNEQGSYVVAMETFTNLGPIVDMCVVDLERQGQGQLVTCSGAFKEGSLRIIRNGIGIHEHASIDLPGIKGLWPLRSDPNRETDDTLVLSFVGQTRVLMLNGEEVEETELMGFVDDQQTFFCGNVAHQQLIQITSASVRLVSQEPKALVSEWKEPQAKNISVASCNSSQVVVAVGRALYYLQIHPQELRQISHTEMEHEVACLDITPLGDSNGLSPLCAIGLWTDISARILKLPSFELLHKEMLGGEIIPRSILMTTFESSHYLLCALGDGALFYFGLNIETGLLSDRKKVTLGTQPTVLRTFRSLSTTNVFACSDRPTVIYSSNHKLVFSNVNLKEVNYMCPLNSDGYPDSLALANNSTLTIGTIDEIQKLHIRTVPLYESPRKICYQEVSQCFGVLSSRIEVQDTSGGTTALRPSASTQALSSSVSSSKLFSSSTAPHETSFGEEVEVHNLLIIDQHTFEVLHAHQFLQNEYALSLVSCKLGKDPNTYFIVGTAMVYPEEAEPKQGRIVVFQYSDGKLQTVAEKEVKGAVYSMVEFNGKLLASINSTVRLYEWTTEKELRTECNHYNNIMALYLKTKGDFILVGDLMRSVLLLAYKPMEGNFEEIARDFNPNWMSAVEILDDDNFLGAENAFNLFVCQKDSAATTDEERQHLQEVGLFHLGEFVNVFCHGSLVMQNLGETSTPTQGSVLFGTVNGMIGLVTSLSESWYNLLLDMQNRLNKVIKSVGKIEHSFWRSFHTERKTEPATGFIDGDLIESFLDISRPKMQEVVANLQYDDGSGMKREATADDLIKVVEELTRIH

Compound	IC50 (CRBN/DDB1) [nM]	DC50 (ER [1]) [nM]	Dmax (ER [1]) [%]	DC50 (ER [2]) [nM]	Dmax (ER [2]) [%]
O=C1CCC(N2C(=O)c3cc4c(cc3C2=O)CN(C(=O)C2CCN(C3CCN(c5ccc([C@H]6c7ccc(O)cc7OC[C@H]6c6ccccc6)cc5)CC3)CC2)C4)C(=O)N1 (single isomer, unassigned) [Compound A78]	500 to 5000	10 to 100	25 to 50	–	–
O=C1CCC(N2Cc3cc4c(cc3C2=O)CN(C(=O)C2CCN(C3CCN(c5ccc([C@H]6c7ccc(O)cc7OC[C@H]6c6ccccc6)cc5)CC3)CC2)C4)C(=O)N1 (single isomer, unassigned) [Compound A80]	500 to 5000	10 to 100	50 to 75	–	–
O=C1CCN(c2ccc(N3CCN(CC4CCN(c5ccc([C@@H]6c7ccc(O)cc7OC[C@@H]6c6ccccc6)cc5)CC4)CC3)cc2)C(=O)N1 (single isomer, unassigned) [Compound A82]	500 to 5000	1 to 10	25 to 50	–	–
O=C1CCN(c2ccc(N3CCN(CC4CC5(CCN(c6ccc([C@@H]7c8ccc(O)cc8OC[C@@H]7c7ccccc7)cc6)CC5)C4)CC3)cc2)C(=O)N1 (single isomer, unassigned) [Compound A83]	> 5000	> 100	< 25	–	–
O=C1CCN(c2ccc(N3CCC(CN4CC5(CCN(c6ccc([C@@H]7c8ccc(O)cc8OC[C@@H]7c7ccccc7)cc6)CC5)C4)CC3)cc2)C(=O)N1 (single isomer, unassigned) [Compound A87]	> 5000	1 to 10	25 to 50	–	–
COc1nc(C(=O)NC2CCC(=O)NC2=O)ccc1N1CCN(CC2CC3(CCN(c4ccc([C@H]5c6ccc(O)cc6OC[C@H]5c5ccccc5)cc4)CC3)C2)CC1 (single isomer, unassigned) [Compound A97]	500 to 5000	< 1	25 to 50	–	–
O=C1CCC(NC(=O)c2ccc(C3CCN(CC4CCN(c5ccc([C@H]6c7ccc(O)cc7OC[C@H]6c6ccccc6)cc5F)CC4)CC3)cn2)C(=O)N1 (single isomer, unassigned) [Compound A101]	> 5000	< 1	< 25	–	–
O=C1CCC(N2C(=O)c3cc4c(cc3C2=O)CN(C(=O)CN2CCC3(CC2)CN(c2ccc([C@@H]5c6ccc(O)cc6OC[C@@H]5c5ccccc5)cc2)C3)C4)C(=O)N1 (stereo partly drawn) [Compound A47, 2-(2,6-dioxopiperidin-3-yl)-6-(2-(2-(4-((3S,4R)-7-hydroxy-3-phenylchroman-4-yl)phenyl)-2,7-diazaspiro[3.5]nonan-7-yl)acetyl)-6,7-dihydropyrrolo[3,4-f]isoindole-1,3(2H,5H)-dione]	500 to 5000	–	–	10 to 100	25 to 50
O=C1CCC(N2Cc3cc4c(cc3C2=O)CN(C(=O)CN2CCC3(CC2)CN(c2ccc([C@H]5c6ccc(O)cc6OC[C@H]5c5ccccc5)cc2)C3)C4)C(=O)N1 (stereo partly drawn) [Compound A48, 3-(6-(2-(2-(4-((3R,4S)-7-hydroxy-3-phenylchroman-4-yl)phenyl)-2,7-diazaspiro[3.5]nonan-7-yl)acetyl)-1-oxo-3,5,6,7-tetrahydropyrrolo[3,4-f]isoindol-2(1H)-yl)piperidine-2,6-dione]	50 to 500	–	–	> 100	< 25
COc1cc(N2CCC(CN3CCN4c5ccc6c(c5OC[C@H]4C3)CN(C3CCC(=O)NC3=O)C6=O)CC2)ccc1[C@H]1c2ccc(O)cc2OC[C@H]1c1ccccc1 (stereo partly drawn) [Compound A76, 3-((R)-7-((1-(4-((3R,4S)-7-hydroxy-3-phenylchroman-4-yl)-3-methoxyphenyl)piperidin-4-yl)methyl)-1-oxo-1,3,5,5a,6,7,8,9-octahydro-2H-81pyrazino[1′,2′:4,5][1,4]oxazino[2,3-e]isoindol-2-yl)piperidine-2,6-dione]	50 to 500	> 100	< 25	–	–
